# Measured values: PMC8269107, “Lipidation of Temporin-1CEb Derivatives as a Tool for Activity Improvement, Pros and Cons of the Approach” (International Journal of Molecular Sciences, 2021)
# Where a SMILES comes first, the peptide text is derived from it. [ ]: non-standard residue; d: D form. The star is where a group is joined. Lauroyl = CCCCCCCCCCCC(=O)*; Pentanoyl = CCCCC(=O)*; AEEA = NCCOCCOCC(=O)O; βAla = NCCC(=O)O
# Legend:
# [1] = system: C.albicans CCM 8186; test: MIC, broth microdilution; format: cell-based, Candida albicans; conditions: for MIC100: C.albicans CCM 8186, 24 h
# Text: (§1) Escherichia coli (PCM 2057 = ATCC 25922), Staphylococcus aureus (PCM 2054 = ATCC 25923), Staphylococcus epidermidis (PCM 2118 = ATCC 14990), Bacillus subtilis (PCM 2224 = ATCC 9799), Bacillus cereus (PCM 482 = ATCC 10702) and Pseudomonas aeruginosa (PCM 499 = ATCC 10145) were obtained from the Polish Collection of Microorganisms. Fungi strains Candida albicans (CCM 8186 = CNTC 49/64), Candida glabrata (CCM 8270 = ATCC 90030), Candida parapsilosis (CCM 8260 = ATCC 22019) and Candida krusei (CCM 8271 = ATCC 6258) were acquired from the Czech Collection of Microorganisms. S. aureus USA300 (wild type strain), the reference strain of Klebsiella pneumoniae (ATCC 13883) and clinical isolates of Pseudomonas aeruginosa (PA1, PA2) collected from nonrelated patients admitted to the Stefan Zeromski Specialist Municipal Hospital in Krakow (Poland) were kindly provided by the research group of the Department of Microbiology, Faculty of Biochemistry, Biophysics and Biotechnology, Jagiellonian University, Krakow, Poland.
# (§2) Luria-Bertani broth (LB) and Sabouraud Dextrose broth (SB) (Biocorp, Poland) were used for cultivation of bacteria and fungi strains, respectively. The antimicrobial activity of the peptides were analyzed through determination of MIC (minimal inhibitory concentration) parameters according to Clinical and Laboratory Standards (CLSI) guidelines developed for aerobic bacteria and yeasts, respectively. Mueller-Hinton broth (MHB) was used as the working medium for all bacterial strains, while in the case of fungi, RPMI-1640 (with L-glutamine, without sodium bicarbonate) growth medium buffered with MOPS (morpholinepropanesulfonic acid) and supplemented with 2% glucose was used. Inoculum was prepared from freshly grown cultures of microorganisms at their exponential phase of growth. […] Plates were then incubated for 24 h at 37 °C in the case of bacteria and at 35 °C in the case of fungi. After that time, absorbance was read at 590 nm with a Perkin Elmer plate reader. Cultures without peptide were treated as positive control, while uninoculated media were defined as negative control. All measurements were run at least in triplicate.
# [2] = system: C.krusei CCM 8271; test: MIC, broth microdilution; format: cell-based, Candida krusei; conditions: C.krusei CCM 8271, 24 h
# Text: as §1, §2
# [3] = system: C.parapsilosis CCM 8260; test: MIC, broth microdilution; format: cell-based, Candida parapsilosis; conditions: C.parapsilosis CCM 8260, 24 h
# Text: as §1, §2
# [4] = system: C.glabrata CCM 8270; test: MIC, broth microdilution; format: cell-based, Candida glabrata; conditions: for MIC100: C.glabrata CCM 8270, 24 h
# Text: as §1, §2
# [5] = system: B. subtilis PCM 2224; test: MIC, broth microdilution; format: cell-based, Bacillus subtilis; conditions: B. subtilis PCM 2224, 24 h
# Text: as §1, §2
# [6] = system: S. aureus PCM 2054; test: MIC, broth microdilution; format: cell-based, Staphylococcus aureus; conditions: S. aureus PCM 2054, standard Mueller-Hinton broth, 24 h
# Text: as §1, §2
# [7] = system: primary fibroblasts; test: Cytotoxicity, MTT assay; format: cell-based, human; conditions: 24 h
# Method: Human dermal fibroblasts were obtained as previously reported from biopsies of healthy human skin of three donors undergoing a surgery. All procedures were approved by the Ethics Committee of Medicinal University of Gdansk (NKEBN/483/2011 and NKBBN/745/2019-2020). Immortalized human HaCaT keratinocytes (DKFZ Heidelberg, Germany) were obtained commercially.
# Both types of cell lines were grown in Dulbecco′s Modified Eagle′s Medium (DMEM) (Sigma-Aldrich, Germany), containing […] of glucose, […] of L- glutamine, sodium pyruvate and sodium bicarbonate. Additionally, the medium was supplemented with 10% FCS (fetal calf serum, Sigma-Aldrich, Germany), 100 U/mL of penicillin and 100 μg/mL of streptomycin (Sigma-Aldrich, Germany). The cells were grown in standard culture dishes (BD, USA) in a humidified atmosphere with 5% CO2 at […], and the medium was changed every 2 days.
# The fibroblasts and keratinocytes were seeded at density of 5500 cells per well into 96-well plates suspended in a medium supplemented with 10% FCS. After 24 h from seeding, the media were exchanged with serum- and antibiotic-free DMEM and tested peptides, dissolved in sterile water, which were added, yielding a final concentration ranging from 1 to 50 μg/mL. The cells were then incubated for the next 24 h. At the end of the experiment, the cells were treated with 20 μL of MTT (5 mg/mL in PBS). After 3 h of incubation in the presence of MTT dye, the DMEM medium was discarded and replaced with 6 mM HCl in isopropanol. When the purple crystals of formazan were fully solubilized, absorbance at 570 nm was read.
# [8] = system: C. albicans (CCM 8186) biofilm; test: Biofilm inhibition assay (MTT); format: cell-based, Candida albicans; conditions: C. albicans biofilm development, 24 h post-inoculation
# Method: In the case of bacteria, an overnight culture of S. aureus in Tryptic Soy Broth (TSB) supplemented with 2% glucose (TSB/+G) was used to prepare inoculum for the experiments. Briefly, 5 mL of 24 h culture was centrifuged at 5000× g, washed with sterile PBS and suspended in a fresh 2 × concentrated TSB/+G. In the case of yeasts, the overnight culture of C. albicans in Sabouraud dextrose broth (SB) was used for inoculum preparation. Similar to above, 5 mL of 24 h culture was centrifuged, washed with PBS and then suspended in sterile 2 × concentrated RPMI-1640 medium (with L-glutamine, without sodium bicarbonate) supplemented with 2% glucose (RPMI-1640/+G). In both cases, the cell concentration of the inoculum was about 1 × 10^7 cells per ml.
# For the determination of the inhibitory concentration that reduced biofilm development by 50% (BIC50^, expressed in µg/mL), 100 µL inoculum in 2 × concentrated RPMI-1640/+G medium (in the case of C. albicans) or 2 x concentrated TSB/+G broth (in the case of S. aureus) was transferred to each well of 96-well plates containing 100 µL of serially diluted in water tested compounds. The final concentrations of the compounds were the same as those used in MIC determination studies. The 96-well plates were then incubated for 24 h at 37 °C and 35 °C in the case of bacteria and fungi, respectively. Viability of the microorganisms in the presence of the tested compounds was analyzed by means of MTT assay.
# The reduction in biofilm viability was analyzed by means of MTT assay. Briefly, 20 μL of MTT solution (5 mg/mL in PBS) was added to prewashed wells with exchanged medium (180 μL of fresh medium) wells containing bacterial/yeast biofilms. Plates were then incubated in the dark for the next 3 h at 37 °C. After that time, the medium was replaced with 6 mM HCl in isopropanol and, when the reduced MTT was fully dissolved, the plates were read at 570 nm. Activity against fully developed 24 h old biofilm was described as biofilm eradication concentration (BEC50 expressed in µg/mL), which corresponded to the concentration of the compound able to reduce 50% of biofilm viability compared with the growth control.
SMILES,MIC100 [1],MIC100 [2],MIC100 [3],MIC100 [4],MIC100 [5],MIC100 [6],IC50 [7],BIC50 [8],"effect on cell viability (in words) ([7]; fibroblasts, MTT, 1 to 50 µg/mL)","IC50 ([7]; primary Fibroblasts, MTT)","fold improved activity in comparison to the parent DK5 ([1]; C. albicans, MIC)","fold improved activity in comparison to the parent DK5 ([4]; C. glabrata, MIC)"
CC[C@H](C)[C@H](NC(=O)COCCOCCNC(=O)[C@H](Cc1c[nH]cn1)NC(=O)CCN)C(=O)N[C@@H](CCCCN)C(=O)N[C@@H](CCCCN)C(=O)N[C@H](C(=O)N[C@@H](CC(C)C)C(=O)N[C@@H](CO)C(=O)N[C@@H](CCCCN)C(=O)N[C@H](C(=O)N[C@@H](CCCCN)C(=O)N[C@@H](CCCCN)C(=O)N[C@@H](CC(C)C)C(=O)N[C@@H](CC(C)C)C(N)=O)[C@@H](C)CC)[C@@H](C)CC [CAR-PEG-DK5] (H-[βAla]H[AEEA]IKKILSKIKKLL-NH2; N-terminus and C-terminus assumed),15.6 µg/mL,3.9 µg/mL,31.3 µg/mL,62.5 µg/mL,3.9 µg/mL,>50 µg/mL,35 µg/mL,50 µg/mL,,,,
CCCCC(=O)N[C@H](C(=O)N[C@@H](CCCCN)C(=O)N[C@@H](CCCCN)C(=O)N[C@H](C(=O)N[C@@H](CC(C)C)C(=O)N[C@@H](CO)C(=O)N[C@@H](CCCCN)C(=O)N[C@H](C(=O)N[C@@H](CCCCN)C(=O)N[C@@H](CCCCN)C(=O)N[C@@H](CC(C)C)C(=O)N[C@@H](CC(C)C)C(N)=O)[C@@H](C)CC)[C@@H](C)CC)[C@@H](C)CC [Compound C5-DK5] (Pentanoyl-IKKILSKIKKLL-NH2),6.25 µg/mL,25 µg/mL,3.13 µg/mL,6.25 µg/mL,0.78 µg/mL,12.5 µg/mL,,10 µg/mL,moderately toxic,20 µg/mL,,
CCCCCCCCCCCC(=O)N[C@H](C(=O)N[C@@H](CCCCN)C(=O)N[C@@H](CCCCN)C(=O)N[C@H](C(=O)N[C@@H](CC(C)C)C(=O)N[C@@H](CO)C(=O)N[C@@H](CCCCN)C(=O)N[C@H](C(=O)N[C@@H](CCCCN)C(=O)N[C@@H](CCCCN)C(=O)N[C@@H](CC(C)C)C(=O)N[C@@H](CC(C)C)C(N)=O)[C@@H](C)CC)[C@@H](C)CC)[C@@H](C)CC [Compound C12-DK5] (Lauroyl-IKKILSKIKKLL-NH2),3.13 µg/mL,3.13 µg/mL,3.13 µg/mL,3.13 µg/mL,0.78 µg/mL,6.25 µg/mL,,6.25 µg/mL,,7 µg/mL,about 10 fold,~20 fold
